# System: patients with biopsy-proven NASH with fibrosis and no cirrhosis
# Test: EMMINENCE Phase 2b trial, markers of glucose metabolism, liver enzymes, fibrosis and apoptosis biomarkers
# Type: in vivo, human
# Conditions: for Glucose, LS mean change from baseline to 6 months / Glucose, LS mean difference vs placebo at 6 months / HOMA IR, LS mean change from baseline to 6 months / HOMA IR, LS mean difference vs placebo at 6 months / HgBA1C, LS mean change from baseline to 6 months / HgBA1C, LS mean difference vs placebo at 6 months / Insulin, LS mean change from baseline to 6 months / Insulin, LS mean difference vs placebo at 6 months: patients with HbA1C >7%
# Procedure: Study Design: EMMINENCE was a randomized, double-blind evaluation of three oral daily doses of MSDC-0602K (62.5 mg, 125 mg and 250 mg) or placebo given for 12 months to adult patients with biopsy-proven NASH with fibrosis and no cirrhosis. The primary efficacy endpoint was assessed at 12 months. Clinic visits were conducted at baseline, 1, 2, 3, 6, 9, and 12 months, followed 2 weeks later by a safety visit. An interim analysis of safety and efficacy not related to the primary and secondary endpoints was conducted when 6 month data were available for 328 patients (see Example 5, above.) Interim results were provided only as summary statistics to avoid any unmasking of the study team or sponsor.
# If no usable liver biopsy was available within 9 months prior to screening, a percutaneous liver biopsy was performed in patients with AST≥20 U/L and FibroScan CAP score ≥270 db/m and kPa≥8.5. Digitized slides were read by a single expert histopathologist according to NASH Clinical Research Network criteria. Baseline biopsies were read first for study qualification and a second time mixed randomly among 12-month biopsies. Fasting blood samples for routine central laboratory analyses were collected at each visit, and frozen samples collected at selected visits for biomarker assays.
# Efficacy endpoints: The primary efficacy endpoint was hepatic histological improvement in NAS defined as ≥2-point NAS decrease with a ≥1-point reduction in either ballooning or lobular inflammation and no increase in fibrosis stage at 12 months. Secondary efficacy endpoints included (1) NASH resolution defined as hepatocellular ballooning score of 0 and lobular inflammation score of 0-1 with no increase in fibrosis stage at 12 months, (2) fibrosis improvement defined as ≥1-stage decrease in fibrosis with no worsening of lobular inflammation or hepatocellular ballooning, (3) change from baseline in NAFLD activity score (NAS) and each one of its components (steatosis, lobular inflammation and ballooning) at 12 months, and (4) change from baseline in fibrosis score at 12 months. Exploratory efficacy endpoints included shifts in the central histopathologist's NASH diagnosis confirmation, and changes from baseline to 12 months in markers of glycemic control and insulin sensitivity, liver function/injury, and apoptosis and liver fibrosis.
# Using a modified intent-to-treat approach, treated patients were included for analysis in their randomly-assigned treatment groups. Participation of sites with serious GCP or quality concerns were terminated and their data excluded from the analyses. Post-baseline measures through 14 days after the last study drug dose were included. No errors in treatment assignment occurred. The central histopathologist's re-read of baseline biopsies was used as baseline. Patients who no longer qualified on re-read were included in the analyses. Each active treatment group was compared to placebo with respect to the primary and secondary histopathologic endpoints using logistic regression including adjustment for randomization strata (diabetes mellitus, baseline fibrosis F1 versus F2/F3), and ordinal baseline NAS. Stratification-adjusted risk differences adjusted similarly are provided. The primary analyses included only observed data; sensitivity analyses included multiply-imputing missing follow-up and considering missing follow-up as a non-responder. Each active dose was compared to placebo regarding changes in NASH CRN scores using analysis of covariance with adjustment for age, sex, diabetes mellitus, Vitamin E≥400 IU, baseline fibrosis F1 versus F2/F3, and the baseline value. Changes in laboratory markers from baseline to 6 months and to 12 months were analyzed similarly.
# Post-hoc analyses: Each active dose was compared to placebo regarding the proportion where the pathologist's NASH diagnosis shifted from confirmed at baseline (re-read) to not confirmed at month 12 using logistic regression. […]
smiles,measurement,setting,value
COc1cccc(C(=O)COc2ccc(CC3SC(=O)NC3=O)cc2)c1 (stereo not shown) [MSDC-0602K],proportion of patients with baseline ALT above 19 (women) and 30 (men) U/L whose levels were normal at 12 months,62.5 mg,10.6%
same,proportion of patients with baseline ALT above 19 (women) and 30 (men) U/L whose levels were normal at 12 months,125 mg,20.8%
same,proportion of patients with baseline ALT above 19 (women) and 30 (men) U/L whose levels were normal at 12 months,250 mg,33.3%
same,proportion of patients with baseline ALT above 19 (women) and 30 (men) U/L whose levels were normal at 12 months,combined 125 and 250 mg dose groups,27.2%
same,"Glucose, LS mean change from baseline to 6 months",62.5 mg,-2.42 mmol/L
same,"Glucose, LS mean difference vs placebo at 6 months",62.5 mg,-1.18 mmol/L
same,"HOMA IR, LS mean change from baseline to 6 months",62.5 mg,−6.472
same,"HOMA IR, LS mean difference vs placebo at 6 months",62.5 mg,−1.964
same,"HgBA1C, LS mean change from baseline to 6 months",62.5 mg,−0.61%
same,"HgBA1C, LS mean difference vs placebo at 6 months",62.5 mg,−0.18 %
same,"Insulin, LS mean change from baseline to 6 months",62.5 mg,−7.724 uIU/mL
same,"Insulin, LS mean difference vs placebo at 6 months",62.5 mg,−2.242 uIU/mL
same,"Glucose, LS mean change from baseline to 6 months",125 mg,-3.48 mmol/L
same,"Glucose, LS mean difference vs placebo at 6 months",125 mg,-2.23 mmol/L
same,"HOMA IR, LS mean change from baseline to 6 months",125 mg,−8.178
same,"HOMA IR, LS mean difference vs placebo at 6 months",125 mg,−3.669
same,"HgBA1C, LS mean change from baseline to 6 months",125 mg,−1.43%
same,"HgBA1C, LS mean difference vs placebo at 6 months",125 mg,−1.01%
same,"Insulin, LS mean change from baseline to 6 months",125 mg,−8.208 uIU/mL
same,"Insulin, LS mean difference vs placebo at 6 months",125 mg,−2.726 uIU/mL
same,"Glucose, LS mean change from baseline to 6 months",250 mg,-3.24 mmol/L
same,"Glucose, LS mean difference vs placebo at 6 months",250 mg,-1.99 mmol/L
same,"HOMA IR, LS mean change from baseline to 6 months",250 mg,−8.197
same,"HOMA IR, LS mean difference vs placebo at 6 months",250 mg,−3.689
same,"HgBA1C, LS mean change from baseline to 6 months",250 mg,−1.00%
same,"HgBA1C, LS mean difference vs placebo at 6 months",250 mg,−0.58%
same,"Insulin, LS mean change from baseline to 6 months",250 mg,−10.066 uIU/mL
same,"Insulin, LS mean difference vs placebo at 6 months",250 mg,−4.584 uIU/mL

# — patent US20240216344A1, “THIAZOLIDINEDIONE ANALOGS FOR THE TREATMENT OF NAFLD AND METABOLIC DISEASES” (Cirius Therapeutics, Inc., priority 2019, published 2024)
